The source of these data is patent publication US10576102B2, “KOC1-derived peptide and vaccine including same” (ONCOTHERAPY SCIENCE, INC., priority 2014, dated 2020).

Holding throughout (assay type): cell-based, human
One experiment concerns peptide-pulsed C1R-A01. In words: In vitro CTL induction, IFN-gamma ELISPOT assay (HLA-A*0101). The note with it: CTLs induced with peptide-pulsed DCs from HLA-A*0101-positive volunteers, day 21, vs peptide-pulsed C1R-A01, compared with unpulsed control. As for the experimental part: C1R (C1R-A01) that stably expresses HLA-A*0101 was used as a stimulator cell. A cDNA encoding the open-reading frame of HLA-A*0101 was amplified by PCR and cloned into an expression vector. C1R cells were transfected with the expression vector, and then selected using G418 (Invitrogen) for two weeks. The G418-selected cells were seeded into wells containing G418-added culture medium in a 96-well plate, and further cultured for 30 days. The exogenous HLA-A*0101 expression in C1R cells was verified by flow cytometric analysis.
(§1) Monocyte-derived dendritic cells (DCs) were used as the antigen-presenting cell to induce a cytotoxic T lymphocyte (CTL) response against peptides presented on human leukocyte antigens (HLAs). As described in the other sections, DCs were generated in vitro (Nakahara S et al., Cancer Res 2003, 63(14): 4112-8). Specifically, peripheral-blood mononuclear cells isolated from healthy volunteers (HLA-A*0101-positive) with the Ficoll-Paque plus solution (Pharmacia) were separated by attaching to plastic tissue culture dishes (Becton Dickinson) and concentrated as a monocyte fraction. The monocyte-concentrated population was cultured in the presence of 1000 IU/ml granulocyte macrophage colony-stimulating factor (R&D System) and 1000 IU/ml interleukin(IL)-4 (R&D System) in an AIM-V medium (Invitrogen) containing 2% heat-inactivated autologous serum (AS). After seven days of culturing, the cytokine-induced DCs were pulsed with 20 micro-g/ml each of the synthesized peptides in an AIM-V medium at 37 degrees C. for three hours in the presence of 3 micro-g/ml beta 2-microglobulin. Next, these peptide-pulsed DCs were inactivated by X-ray irradiation (20 Gy), and mixed in a 1:20 ratio with autologous CD8^+ T cells obtained by positive selection using the CD8 Positive Isolation Kit (Dynal). These culture products were seeded in a 48-well plate (Corning). Each well was made to contain 1.5×10^4 peptide-pulsed DCs, 3×10^5 CD8^+ T cells and 10 ng/ml IL-7 (R&D System) in 0.5 ml of the AIM-V/2% AS medium. Three days later, these culture products were added with a final concentration of 20 IU/ml IL-2 (CHIRON). On day 7 and day 14, T cells were further stimulated with peptide-pulsed autologous DCs. The DCs were prepared every time by the same method as above. On day 21, after the third peptide stimulation, CTL activities were examined against the peptide-pulsed C1R-A01 cells (Tanaka H et al., Br J Cancer 2001, 84(1): 94-9; Umano Y et al., Br J Cancer 2001, 84(8): 1052-7; Uchida N et al., Clin Cancer Res 2004, 10(24): 8577-86; Suda T et al., Cancer Sci 2006, 97(5): 411-9; Watanabe T et al., Cancer Sci 2005, 96(8): 498-506).
Specifically, peptide-pulsed C1R-A01 (1×10^4 cells/well) was prepared as the stimulator cell. The induced CTLs, i.e., CTL lines and CTL clones, were used as the responder cell. The IFN-gamma ELISPOT assay and IFN-gamma ELISA were performed according to the manufacturer's manual.

Experiment [1] relates to peptide-pulsed C1R-A33. The experiment can be described thus: In vitro CTL induction, IFN-gamma ELISPOT assay (HLA-A*3303). The settings on record: CTLs induced with peptide-pulsed DCs from HLA-A*3303-positive volunteers, day 21, vs peptide-pulsed C1R-A33, compared with unpulsed control. As for the experimental part: C1R (C1R-A33) that stably expresses HLA-A*3303 was used as a stimulator cell. A cDNA encoding the open-reading frame of HLA-A*3303 was amplified by PCR and cloned into an expression vector. C1R cells were transfected with the expression vector, and then selected using G418 (Invitrogen) for two weeks. The G418-selected cells were seeded into wells containing G418-added culture medium in a 96-well plate, and further cultured for 30 days. The exogenous HLA-A*3303 expression in C1R cells was verified by flow cytometric analysis.
as §1, with “volunteers (HLA-A*3303-positive)” for “volunteers (HLA-A*0101-positive)”, “2-microglobulin. The generated cells appeared to express on their cell surface DC-associated molecules such as CD80, CD83, CD86 and HLA class II (data not shown).” for “2-microglobulin.”, “stimulation, CTLs” for “stimulation, CTL activities”, “peptide-pulsed C1R-A33 cell by a human interferon (IFN)-gamma enzyme-linked immunospot (ELISPOT) assay” for “peptide-pulsed C1R-A01 cells”, “Y et.” for “Y et”
(§2) Specifically, peptide-pulsed C1R-A33 (1×10^4 cells/well) was prepared as the stimulator cell. The induced CTLs, i.e., CTL lines and CTL clones, were used as the responder cell. The IFN-gamma ELISPOT assay and IFN-gamma ELISA were performed according to the manufacturer's manual.

For experiment [2], the system named is peptide-pulsed C1R-A33. In words: IFN-gamma ELISA of CTL lines and CTL clones (HLA-A*3303). The settings on record: for IFN-gamma production of CTL clones, ELISA: CTL clones by limiting dilution, peptide-pulsed C1R-A33; for IFN-gamma production of CTL lines, ELISA: target cells pulsed with the peptide vs not pulsed, C1R-A33. As for the experimental part: CTLs were propagated in culture using methods similar to those disclosed by Riddell et al. (Walter E A et al., N Engl J Med 1995, 333(16): 1038-44; Riddell S R et al., Nat Med 1996, 2(2): 216-23). The CTLs were co-cultured in a total of 25 ml AIM-V medium containing 5% AS (AIM-V/5% AS) and 40 ng/ml anti-CD3 antibody with two types of Mitomycin C-treated human B lymphoblastoid cell lines at 5×10^6 cells/flask. One day after beginning of the culturing, 120 IU/ml IL-2 was added to the culture. On days 5, 8 and 11, a fresh AIM-V/5% AS medium containing 30 IU/ml IL-2 was added to the culture (Tanaka H et al., Br J Cancer 2001, 84(1): 94-9; Umano Y et al., Br J Cancer 2001, 84(8): 1052-7; Uchida N et al., Clin Cancer Res 2004, 10(24): 8577-86; Suda T et al., Cancer Sci 2006, 97(5): 411-9; Watanabe T et al., Cancer Sci 2005, 96(8): 498-506).
Dilution of CTLs was carried out to make 0.3, 1 and 3 cells/well in 96 round-bottomed microtiter plates (Nalge Nunc International). The CTLs were co-cultured with two types of Mitomycin C-treated human B lymphoblastoid cell lines at 1×10^4 cells/well in a total of 150 micro-1/well AIM-V/5% AS medium with 30 ng/ml anti-CD3 antibody and 125 IU/ml IL-2. Ten days later, IL-2 was added to the medium at 50 micro-1/well to reach a final concentration of 125 IU/ml. On day 14, the CTL activity was tested, and the CTL clones were propagated using the same method as described above (Uchida N et al., Clin Cancer Res 2004, 10(24): 8577-86; Suda T et al., Cancer Sci 2006, 97(5): 411-9; Watanabe T et al., Cancer Sci 2005, 96(8): 498-506).
as §2
Background: ELISA stands for enzyme-linked immunosorbent assay.

Entries after “also recorded” stand apart in the source; their conditions may differ.

With “QSETETVHLF (a peptide derived from KOC1) [SEQ ID NO: 95]”, the “peptide-specific CTL activity (IFN-gamma production), ELISPOT” value (from here on “peptide-specific CTL activity”) with peptide-pulsed C1R-A01 is reported as “potent IFN-gamma production”.
As to “VVKITGHFY (a peptide derived from KOC1) [SEQ ID NO: 13]”, in the experiment with peptide-pulsed C1R-A01 (listed as KOC1-A01-9-536), the “peptide-specific CTL activity” value was “no specific IFN-gamma production; also recorded: specific IFN-gamma production was not observed”.
For “ELTLYNPER (a peptide derived from KOC1) [SEQ ID NO: 63]”, in the experiment with peptide-pulsed C1R-A33 [1], the “peptide-specific CTL activity” value is “potent IFN-gamma production”.
Consider “LVKTGYAFV (a peptide derived from KOC1) [SEQ ID NO: 74]”, for which the “peptide-specific CTL activity” value with peptide-pulsed C1R-A33 [1] was “potent IFN-gamma production”.
Take “NNFVGRLIGK (a peptide derived from KOC1) [SEQ ID NO: 85]”: the “peptide-specific CTL activity” value with peptide-pulsed C1R-A33 [1] is on record as “potent IFN-gamma production”.
With “VVVKITGHFY (a peptide derived from KOC1) [SEQ ID NO: 41]”, in the experiment with peptide-pulsed C1R-A01, the “peptide-specific CTL activity” value is “potent IFN-gamma production”.
For “LAHNNFVGR (a peptide derived from KOC1) [SEQ ID NO: 62]”, the “peptide-specific CTL activity” value in the experiment with peptide-pulsed C1R-A33 [1] is given as “potent IFN-gamma production”. The “IFN-gamma production of CTL clones, ELISA” value in the experiment on peptide-pulsed C1R-A33 [2] (listed as KOC1-A33-9-282) is “Potent IFN-gamma production”. In addition, the “IFN-gamma production of CTL lines, ELISA” value in the experiment on peptide-pulsed C1R-A33 [2] was “potent IFN-gamma production”.
Consider “QGQHIKQLSR (a peptide derived from KOC1) [SEQ ID NO: 80]”, for which the “peptide-specific CTL activity” value with peptide-pulsed C1R-A33 [1] was “potent IFN-gamma production”.
For “FYACQVAQR (a peptide derived from KOC1) [SEQ ID NO: 61]”, in the experiment with peptide-pulsed C1R-A33 [1], the “peptide-specific CTL activity” value is “potent IFN-gamma production”. For the same sequence, the “IFN-gamma production of CTL clones, ELISA” value with peptide-pulsed C1R-A33 [2] (listed as KOC1-A33-9-543) is given as “Potent IFN-gamma production”. Also, the “IFN-gamma production of CTL lines, ELISA” value in the experiment with peptide-pulsed C1R-A33 [2] is “potent IFN-gamma production”.
With “ISPLQELTLY (a peptide derived from KOC1) [SEQ ID NO: 46]”, in the experiment on peptide-pulsed C1R-A01, the “peptide-specific CTL activity” value is reported as “potent IFN-gamma production”.
Regarding “ETETVHLFI (a peptide derived from KOC1) [SEQ ID NO: 90]”, in the experiment with peptide-pulsed C1R-A01, the “peptide-specific CTL activity” value was “potent IFN-gamma production”.
Turning to “QSETETVHL (a peptide derived from KOC1) [SEQ ID NO: 92]”, the “peptide-specific CTL activity” value in the experiment on peptide-pulsed C1R-A01 is listed as “potent IFN-gamma production”.
“SSAEVVVPR (a peptide derived from KOC1) [SEQ ID NO: 4]”: in the experiment with peptide-pulsed C1R-A33 [1] (listed as KOC1-A33-9-517), the “peptide-specific CTL activity” value is “no specific IFN-gamma production; also recorded: specific IFN-gamma production was not observed”.
On to “FYACQVAQRK (a peptide derived from KOC1) [SEQ ID NO: 79]”, for which the “peptide-specific CTL activity” value with peptide-pulsed C1R-A33 [1] is reported as “potent IFN-gamma production”.
